# According to patent US20050050594A1, “Tryptophan synthase as a site of herbicide action” (priority 1999, published 2005):
# Where a name gives a salt, the structure may show the parent alone. Read-outs that look alike come from different tables or passages of the source.
# Experiments:
# Arabidopsis TS enzyme = target: T1, Arabidopsis TS enzyme (Arabidopsis thaliana, UniProt Q42529); assay: TSα assay with recombinant plant TSα and TSβ expressed in E. coli; format: biochemical; settings: inhibitor 82 uM; pAC 758 (1.5 ug) + pAC 755 (3 ug)
# T1 construct: GST (N, cleaved yes); made in house; host or cells: E. coli DH5α (pGEX-2T constructs)
# T1 sequence (Q42529 with tags, fused parts or gaps): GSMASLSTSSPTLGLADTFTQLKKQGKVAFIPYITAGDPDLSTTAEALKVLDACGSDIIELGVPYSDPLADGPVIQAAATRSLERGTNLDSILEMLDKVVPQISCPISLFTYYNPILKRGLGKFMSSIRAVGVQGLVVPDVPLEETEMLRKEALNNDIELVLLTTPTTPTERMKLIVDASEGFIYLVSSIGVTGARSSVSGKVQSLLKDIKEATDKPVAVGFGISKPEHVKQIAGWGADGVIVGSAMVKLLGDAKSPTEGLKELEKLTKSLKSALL
# T1 sequence (P14671 with tags, fused parts or gaps partner): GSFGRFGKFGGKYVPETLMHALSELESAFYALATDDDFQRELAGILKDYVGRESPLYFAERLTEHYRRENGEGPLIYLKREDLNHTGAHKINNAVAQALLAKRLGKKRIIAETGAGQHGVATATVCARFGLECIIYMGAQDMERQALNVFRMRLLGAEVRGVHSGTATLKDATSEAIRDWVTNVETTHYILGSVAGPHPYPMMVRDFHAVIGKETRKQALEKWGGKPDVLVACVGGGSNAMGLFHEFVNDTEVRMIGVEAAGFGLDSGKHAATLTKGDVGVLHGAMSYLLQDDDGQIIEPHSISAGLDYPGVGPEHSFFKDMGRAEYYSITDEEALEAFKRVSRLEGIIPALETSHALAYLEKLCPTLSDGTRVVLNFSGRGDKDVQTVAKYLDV
# Description: The plant TS proteins were expressed as fusion proteins with glutathione transferase (GST) to facilitate purification. After purification, the GST protein was cleaved off with thrombin as described above before the plant TS assays were performed. After thrombin cleavage, both TSα and TSβ-subunit proteins retained a Gly-Ser residue on the N-terminal of the protein in addition to the TS sequence. […]
# The TSα enzyme assay was conducted as described in Example 3 for Salmonella TSα.
# Specifically, phenylthiophosphonic acid compounds were used. The TSα assay conditions were as described for Salmonella TSα in Example 3 except that recombinant plant proteins were used instead of the Salmonella enzyme.
# [1] = target: T2, Salmonella typhimurium tryptophan synthase holoenzyme (α2β2), TSα reaction (Salmonella typhimurium, UniProt P00929); assay: Inhibition of tryptophan synthase by the TSα reaction, microtiter kinetic coupled enzyme assay; format: biochemical
# T2 construct: made in house; host or cells: E. coli strain CB149pSTB7
# Source text: Inhibitors of TS were identified by their ability to inhibit the production of glyceraldehyde-3-P by the TSα reaction of the Salmonella typhimurium holoenzyme (α2β2) in the presence of a limiting amount of indole-3-glycerolphosphate and an excess of serine
# The assay was developed as a new microtiter plate kinetic enzyme assay based on the combined methods of Creighton (EurJBch 13:1-10, 1970) and Creighton and Yanofsky (JBC 241:980, 1966) with modifications. The rate of glyceraldehyde production was measured as the linear […] (spectrophotometric absorbance at 340 nm) in the presence of glyceraldehyde-3-phosphate dehydrogenase in a coupled enzyme assay.
# The assay solution contained a test inhibitor compound, 50 mM Tris-Cl (pH 7.8), 6 mM sodium arsenate, 5 μg/ml pyridoxal phosphate, 0.5 mM DTT, 0.18M NaCl, 60 mM serine, 1.6 mM NAD+, 8 e.u./ml yeast glyceraldehyde-3-phosphate dehydrogenase (Sigma, Catalog #G2647; Kirschner et al., Eur J Bch, 1975, 60:513 and approximately 1.5 e.u. Salmonella TS. 100 μM IGP was added to start the reaction, which was run at 37° C. and using 300 μl per assay in a microtiter plate.
# The substrate IGP was used at 1.5 to 2 times its Km concentration to enhance the likelihood of identifying weak inhibitors, binding at the substrate binding site. This approach to identifying enzyme inhibitors was novel, since an excess of all substrates, (at least 5-times the Km value of each), is conventionally used in the measurement of enzyme activity.
# Potential inhibitors were evaluated by adding 100 μM inhibitor (equimolar to substrate IGP):or less, in a 1:1 dilution series down from 100 μM, until the inhibition measured was less than 15%. Reaction rates at Vmax were compared in the presence and absence of inhibitors.
# In addition, some weaker inhibitors were identified following preincubation of the inhibitor with the TS assay mix for 24 hrs prior to the addition of IGP. The identifying weaker inhibitors is to aid in a quantitative structure activity relationship (QSAR) evaluation, or to identify new herbicidal inhibitor leads. The previously known inhibitor IPP was used as a standard in all tests, where the I50 for IPP was 1-2 uM.
# Arabidopsis thaliana = assay: Herbicidal activity and tryptophan reversal on Arabidopsis grown on agar medium; format: in vivo; parameters: key: 0 - no effect; 9 - total kill; C - chlorotic seedlings 4-6 days after treatment
# Description: In this experiment, TS inhibitors were tested on Arabidopsis thaliana grown Murashige minimal organics medium, (obtained from Life Technologies, Grand Island, N.Y.), containing 0.7% agar. Compounds were tested at different concentrations to assess their herbicidal activity.
# [2] = TSα reaction, Salmonella holoenzyme, 30 min at 37° C., 100 μM IGP, read-out: TS inhibition I50
# T2 sequence (P00929 whole entry): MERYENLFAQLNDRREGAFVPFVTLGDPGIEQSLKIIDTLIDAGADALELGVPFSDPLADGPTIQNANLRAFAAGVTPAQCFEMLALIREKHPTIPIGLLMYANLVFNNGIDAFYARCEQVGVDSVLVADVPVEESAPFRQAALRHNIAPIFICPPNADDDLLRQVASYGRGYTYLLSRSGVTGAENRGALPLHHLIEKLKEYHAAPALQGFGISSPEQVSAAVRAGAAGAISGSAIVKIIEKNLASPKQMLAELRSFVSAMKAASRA
# T2 sequence (P0A2K1 2-397, further chain): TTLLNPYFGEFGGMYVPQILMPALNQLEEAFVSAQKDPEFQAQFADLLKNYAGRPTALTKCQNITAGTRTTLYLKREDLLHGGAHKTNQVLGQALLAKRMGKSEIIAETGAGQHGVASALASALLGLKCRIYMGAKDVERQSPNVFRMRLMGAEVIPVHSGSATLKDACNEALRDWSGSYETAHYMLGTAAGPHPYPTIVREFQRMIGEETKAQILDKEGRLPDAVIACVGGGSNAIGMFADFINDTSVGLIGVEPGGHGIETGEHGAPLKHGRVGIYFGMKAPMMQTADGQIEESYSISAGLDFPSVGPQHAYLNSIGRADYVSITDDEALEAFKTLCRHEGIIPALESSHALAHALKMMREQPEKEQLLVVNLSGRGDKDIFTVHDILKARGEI
compound,measurement,setting,value
"O=P(O)(O)CCCCS(=O)(=O)c1ccccc1O [Compound 33, Phosphonic acid, {4-[(o-hydroxyphenyl)sulfonyl]butyl}-]","TSα activity, % of control",Arabidopsis TS enzyme,2.4 % of control
same,"TSα activity, relative Vmax",Arabidopsis TS enzyme,0.150 mOD/min
same,IC50,"[1]; I50 TS, TSα reaction of Salmonella holoenzyme",360 nM
"CP(=O)(O)CCCCSc1ccccc1N [Phosphinic acid, {4-[(o-aminophenyl)thio]butyl}methyl-]",IC50,[1]; [2],100000 nM
"CCOP(=O)(CCCCSc1cc(Br)ccc1N)OCC [Phosphonic acid, {4-[2-amino-5-bromophenyl)thio]butyl}-, diethyl ester]",herbicidal injury rating,Arabidopsis thaliana; herbicide 7.8 μM,1
same,herbicidal injury rating,Arabidopsis thaliana; herbicide 16 μM,1
same,herbicidal injury rating,Arabidopsis thaliana; herbicide 31 μM,1
same,herbicidal injury rating,Arabidopsis thaliana; herbicide 63 μM,1
same,herbicidal injury rating,Arabidopsis thaliana; herbicide 125 μM,4
same,herbicidal injury rating,Arabidopsis thaliana; herbicide 250 μM,5
same,herbicidal injury rating,Arabidopsis thaliana; herbicide 500 μM,6
same,herbicidal injury rating,Arabidopsis thaliana; herbicide 1000 μM,8
"Nc1ccc(Br)cc1SCCCCP(=O)(O)O [Phosphonic acid, {4-[2-amino-5-bromophenyl)thio]butyl}-]",herbicidal injury rating,Arabidopsis thaliana; herbicide 7.8 μM,1
same,herbicidal injury rating,Arabidopsis thaliana; herbicide 16 μM,1
same,herbicidal injury rating,Arabidopsis thaliana; herbicide 31 μM,2
same,herbicidal injury rating,Arabidopsis thaliana; herbicide 63 μM,3
same,herbicidal injury rating,Arabidopsis thaliana; herbicide 125 μM,3
same,herbicidal injury rating,Arabidopsis thaliana; herbicide 250 μM,4
same,herbicidal injury rating,Arabidopsis thaliana; herbicide 500 μM,4
same,herbicidal injury rating,Arabidopsis thaliana; herbicide 1000 μM,4
same,IC50,"[1]; TS inhibition I50, TSα reaction, Salmonella holoenzyme, 30 min at 37° C., 100 μM IGP",70 nM
same,"Enzyme activity, % of control",[1]; inhibitor 30 nM,70.5 % of control
same,"Enzyme activity, % of control",[1]; inhibitor 100 nM,38.5 % of control
same,"Enzyme activity, % of control",[1]; inhibitor 300 nM,24.7 % of control
same,"Enzyme activity, % of control",[1]; inhibitor 1000 nM,8.7 % of control
"Nc1cccnc1SCCCCP(=O)(O)O [Phosphonic acid, {4-[3-amino-2-phridyl)thio]butyl}-]",IC50,[1]; [2],5000 nM
"CCOP(=O)(CCCCSc1cc(Cl)ccc1N)OCC [Phosphonic acid, {4-[(2-amino-5-chlorophenyl)thio]butyl}-, diethyl ester]",herbicidal injury rating,Arabidopsis thaliana; herbicide 16 μM,0
same,herbicidal injury rating,Arabidopsis thaliana; herbicide 31 μM,1
same,herbicidal injury rating,Arabidopsis thaliana; herbicide 63 μM,1
same,herbicidal injury rating,Arabidopsis thaliana; herbicide 125 μM,3
same,herbicidal injury rating,Arabidopsis thaliana; herbicide 250 μM,5
same,herbicidal injury rating,Arabidopsis thaliana; herbicide 500 μM,6
same,herbicidal injury rating,Arabidopsis thaliana; herbicide 1000 μM,7
"Nc1ccc(Cl)cc1SCCCCP(=O)(O)O [Phosphonic acid, {4-[(2-amino-5-chlorophenyl)thio]butyl}-]",herbicidal injury rating,Arabidopsis thaliana; herbicide 7.8 μM,0
same,herbicidal injury rating,Arabidopsis thaliana; herbicide 16 μM,1
same,herbicidal injury rating,Arabidopsis thaliana; herbicide 31 μM,1
same,herbicidal injury rating,Arabidopsis thaliana; herbicide 63 μM,1
same,herbicidal injury rating,Arabidopsis thaliana; herbicide 125 μM,3
same,herbicidal injury rating,Arabidopsis thaliana; herbicide 250 μM,3
same,herbicidal injury rating,Arabidopsis thaliana; herbicide 500 μM,3
same,herbicidal injury rating,Arabidopsis thaliana; herbicide 1000 μM,3
"Nc1cc(C(F)(F)F)ccc1SCCCCP(=O)(O)O [Phosphonic acid, {4-[(2-amino-alpha,alpha,alpha-trifluoro-p-tolyl)thio]butyl}-]",IC50,[1]; [2],7000 nM
"Nc1ccccc1SCC=CCP(=O)(O)O [Phosphonic acid, {4-[(o-aminophenyl)thio]-2-butenyl}-]",IC50,[1]; [2],250 nM
same,"Enzyme activity, % of control",[1]; inhibitor 100 nM,70.7 % of control
same,"Enzyme activity, % of control",[1]; inhibitor 300 nM,43.4 % of control
same,"Enzyme activity, % of control",[1]; inhibitor 1000 nM,25.3 % of control
same,"Enzyme activity, % of control",[1]; inhibitor 3000 nM,13.8 % of control
same,"Enzyme activity, % of control",[1]; inhibitor 10000 nM,4.5 % of control
"Nc1ccccc1SCCCCP(=O)(O)O [Phosphonic acid, {4-[(o-aminophenyl)thio]butyl}-, dilithium salt]",IC50,[1]; [2],400 nM
"NC1CCCCC1.NC1CCCCC1.O=P(O)(O)CCCC[S+]([O-])c1ccccc1O (stereo not drawn) [Phosphonic acid, {4-[(o-hydroxyphenyl)sulfinyl]butyl}-, with cyclohexylamine (1:2)]",herbicidal rating,Arabidopsis thaliana; herbicide 7.8 mM + 100 μM Trp,0
same,herbicidal rating,"Arabidopsis thaliana; herbicide 7.8 mM, no Trp",5
same,herbicidal rating,Arabidopsis thaliana; herbicide 16 mM + 100 μM Trp,0
same,herbicidal rating,"Arabidopsis thaliana; herbicide 16 mM, no Trp",6
same,herbicidal rating,Arabidopsis thaliana; herbicide 31 mM + 100 μM Trp,3
same,herbicidal rating,"Arabidopsis thaliana; herbicide 31 mM, no Trp",6
same,herbicidal rating,Arabidopsis thaliana; herbicide 63 mM + 100 μM Trp,5
same,herbicidal rating,"Arabidopsis thaliana; herbicide 63 mM, no Trp",6
same,herbicidal rating,Arabidopsis thaliana; herbicide 125 mM + 100 μM Trp,5
same,herbicidal rating,"Arabidopsis thaliana; herbicide 125 mM, no Trp",6
same,herbicidal rating,Arabidopsis thaliana; herbicide 250 mM + 100 μM Trp,5
same,herbicidal rating,"Arabidopsis thaliana; herbicide 250 mM, no Trp",7Y
same,herbicidal rating,Arabidopsis thaliana; herbicide 500 mM + 100 μM Trp,5
same,herbicidal rating,"Arabidopsis thaliana; herbicide 500 mM, no Trp",7Y
same,herbicidal rating,Arabidopsis thaliana; herbicide 1000 mM + 100 μM Trp,5
same,herbicidal rating,"Arabidopsis thaliana; herbicide 1000 mM, no Trp",8
"O=P(O)(O)CC=CCSc1ccccc1O [Phosphonic acid, {4-[(o-hydroxyphenyl)thio]-2-butenyl}-]","TSα activity, % of control",Arabidopsis TS enzyme,14.7 % of control
same,"TSα activity, relative Vmax",Arabidopsis TS enzyme,0.909 mOD/min
"CCOP(=O)(CCCCSc1ccccc1O)OCC [Phosphonic acid, {4-[(o-hydroxyphenyl)thio]butyl}-, diethyl ester]",herbicidal injury rating,Arabidopsis thaliana; herbicide 7.8 μM,0
same,herbicidal injury rating,Arabidopsis thaliana; herbicide 16 μM,1
same,herbicidal injury rating,Arabidopsis thaliana; herbicide 31 μM,3
same,herbicidal injury rating,Arabidopsis thaliana; herbicide 63 μM,5
same,herbicidal injury rating,Arabidopsis thaliana; herbicide 125 μM,6
same,herbicidal injury rating,Arabidopsis thaliana; herbicide 250 μM,7
same,herbicidal injury rating,Arabidopsis thaliana; herbicide 500 μM,8
same,herbicidal injury rating,Arabidopsis thaliana; herbicide 1000 μM,9
"Phosphonic acid, {4-[(o-hydroxyphenyl)thio]butyl}-,aryl-butyrate (ester)",herbicidal rating,Arabidopsis thaliana; herbicide 7.8 mM + 100 μM Trp,1
same,herbicidal rating,"Arabidopsis thaliana; herbicide 7.8 mM, no Trp",5
same,herbicidal rating,Arabidopsis thaliana; herbicide 16 mM + 100 μM Trp,1
same,herbicidal rating,"Arabidopsis thaliana; herbicide 16 mM, no Trp",6
same,herbicidal rating,Arabidopsis thaliana; herbicide 31 mM + 100 μM Trp,1
same,herbicidal rating,"Arabidopsis thaliana; herbicide 31 mM, no Trp",6
same,herbicidal rating,Arabidopsis thaliana; herbicide 63 mM + 100 μM Trp,3
same,herbicidal rating,"Arabidopsis thaliana; herbicide 63 mM, no Trp",7
same,herbicidal rating,Arabidopsis thaliana; herbicide 125 mM + 100 μM Trp,5
same,herbicidal rating,"Arabidopsis thaliana; herbicide 125 mM, no Trp",7
same,herbicidal rating,Arabidopsis thaliana; herbicide 250 mM + 100 μM Trp,5
same,herbicidal rating,"Arabidopsis thaliana; herbicide 250 mM, no Trp",7
same,herbicidal rating,Arabidopsis thaliana; herbicide 500 mM + 100 μM Trp,3
same,herbicidal rating,"Arabidopsis thaliana; herbicide 500 mM, no Trp",7
same,herbicidal rating,Arabidopsis thaliana; herbicide 1000 mM + 100 μM Trp,3
same,herbicidal rating,"Arabidopsis thaliana; herbicide 1000 mM, no Trp",7
same,"TSα activity, % of control",Arabidopsis TS enzyme,2.1 % of control
same,"TSα activity, relative Vmax",Arabidopsis TS enzyme,0.133 mOD/min
